We go through seven molecules from PubChem BioAssay (NCI).

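These data come from cells grown in 96-well plates and exposed to compound for 48 hours at five concentrations. TGI marks complete inhibition of growth.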

Some test systems named below: 786-0 renal; A549 NSCLC; BT-549 breast; CCRF-CEM leukemia; HCT-15 colon; LOX IMVI melanoma; M14 melanoma; MCF7 breast; MDA-MB-231 breast; NCI-H23 lung; NCI-H522 lung; OVCAR-3 ovarian; OVCAR-5 ovarian; PC-3 prostate; RXF 393 renal; SK-MEL-5 melanoma; SK-OV-3 ovarian; SR leukemia; UACC-257 melanoma.
Assay in all cases: NCI anticancer screen, dose series, 48 h

Regarding `COC(=O)C1=C(C)NC(C)=C(C(=O)OC)C1c1cccc(NO)c1`, the TGI was 28.3 µM in the assay with 786-0 renal; greater than 100 µM in the assay with A549 NSCLC; 32.5 µM in the assay on BT-549 breast; greater than 100 µM in the assay on CCRF-CEM leukemia; 41.4 µM with HCT-15 colon; 29.9 µM in the assay with LOX IMVI melanoma. In addition, the TGI stood at 33.2 µM in the assay on M14 melanoma; 38.5 µM in the assay with MCF7 breast; 31.4 µM with MDA-MB-231 breast; 33.8 µM in the assay on NCI-H23 lung; 20.8 µM in the assay on NCI-H522 lung; 29.5 µM with OVCAR-3 ovarian. Besides, the TGI in the assay on OVCAR-5 ovarian was 30.1 µM; in the assay with PC-3 prostate, 30.4 µM; in the assay on RXF 393 renal, 27.1 µM; in the assay with SK-MEL-5 melanoma it was 29.4 µM; in the assay on SK-OV-3 ovarian, greater than 100 µM; in the assay with SR leukemia, greater than 100 µM. In addition, the TGI in the assay with UACC-257 melanoma turned out to be 27.5 µM.
`COc1ccc(C2(O)c3ccccc3C(=O)N(C)C2(O)c2ccc(OC)cc2)cc1` (stereo not drawn): the TGI with 786-0 renal, in the assay on A549 NSCLC, in the assay on BT-549 breast, in the assay with CCRF-CEM leukemia, with HCT-15 colon and with LOX IMVI melanoma was greater than 100 µM throughout. In addition, the TGI with M14 melanoma is greater than 100 µM; in the assay with MCF7 breast, greater than 100 µM; in the assay on MDA-MB-231 breast, greater than 100 µM; in the assay on NCI-H23 lung, greater than 100 µM; in the assay with NCI-H522 lung, 74.9 µM; in the assay with OVCAR-3 ovarian, greater than 100 µM. Besides, the TGI with OVCAR-5 ovarian, in the assay on PC-3 prostate, in the assay on RXF 393 renal, in the assay on SK-MEL-5 melanoma, in the assay on SK-OV-3 ovarian and in the assay with SR leukemia was greater than 100 µM throughout. This molecule came in with a TGI in the assay on UACC-257 melanoma greater than 100 µM.
`CC(C)CC(NC(=O)C(CCI)Cc1ccccc1)C(=O)Nc1ccccc1` (stereo not drawn): the TGI in the assay with 786-0 renal is greater than 100 µM; in the assay on A549 NSCLC it was greater than 100 µM; with BT-549 breast, 66.5 µM; in the assay with CCRF-CEM leukemia, greater than 100 µM; with HCT-15 colon, greater than 100 µM; in the assay on LOX IMVI melanoma, greater than 100 µM. In addition, the TGI in the assay on M14 melanoma is greater than 100 µM; with MCF7 breast, greater than 100 µM; in the assay with MDA-MB-231 breast, greater than 100 µM; with NCI-H23 lung it was greater than 100 µM; in the assay with NCI-H522 lung, 78.1 µM; in the assay with OVCAR-3 ovarian, greater than 100 µM. In addition, the TGI in the assay with OVCAR-5 ovarian, in the assay with PC-3 prostate, in the assay on RXF 393 renal, with SK-MEL-5 melanoma, with SK-OV-3 ovarian and in the assay with SR leukemia was greater than 100 µM throughout. This molecule showed a TGI with UACC-257 melanoma greater than 100 µM.
With `COc1cc(Oc2nc3c(N)cc(C(F)(F)F)cc3nc2-c2ccccc2)cc(OC)c1OC`, the TGI in the assay with 786-0 renal was greater than 41.1 µM; in the assay on A549 NSCLC, greater than 100 µM; in the assay with BT-549 breast, 34.5 µM; in the assay on CCRF-CEM leukemia, greater than 31.6 µM; with HCT-15 colon, greater than 100 µM; with LOX IMVI melanoma, greater than 100 µM. Moreover, the TGI was greater than 100 µM with M14 melanoma; greater than 50.5 µM with MCF7 breast; greater than 100 µM in the assay with MDA-MB-231 breast; greater than 63.6 µM with NCI-H23 lung; 18.8 µM in the assay with NCI-H522 lung; 13.5 µM in the assay with OVCAR-3 ovarian. Besides, the TGI with OVCAR-5 ovarian was greater than 100 µM; with PC-3 prostate it was 29.5 µM; in the assay on RXF 393 renal, 52 µM; in the assay with SK-MEL-5 melanoma, 48.6 µM; in the assay with SK-OV-3 ovarian, greater than 66.5 µM; in the assay with SR leukemia it was greater than 100 µM. The same molecule gave a TGI with UACC-257 melanoma of 43.9 µM.
Regarding `O=C(CCCN1CCC2(CC1)CC(=O)N(N1CCCCCC1)C2=O)c1ccc(F)cc1`, the TGI with 786-0 renal is 38.1 µM; in the assay with A549 NSCLC, greater than 100 µM; with BT-549 breast, greater than 100 µM; in the assay on CCRF-CEM leukemia, greater than 100 µM; in the assay on HCT-15 colon, greater than 100 µM; in the assay with LOX IMVI melanoma, greater than 100 µM. Moreover, the TGI in the assay with M14 melanoma, with MCF7 breast, in the assay with MDA-MB-231 breast, in the assay with NCI-H23 lung, with NCI-H522 lung and in the assay on OVCAR-3 ovarian was greater than 100 µM each time. In addition, the TGI in the assay on OVCAR-5 ovarian was greater than 100 µM; in the assay on PC-3 prostate, greater than 100 µM; in the assay with RXF 393 renal, 97.9 µM; with SK-MEL-5 melanoma, greater than 100 µM; with SK-OV-3 ovarian it was greater than 100 µM; in the assay with SR leukemia, greater than 100 µM. The molecule further displayed a TGI in the assay with UACC-257 melanoma greater than 100 µM.
Take `CCOc1cc2c(cc1OC(C)=O)C(=O)CC[C@H]1C3CC[C@H](OC(C)=O)[C@@]3(C)CC[C@H]21` (stereo partly drawn): the TGI in the assay with 786-0 renal, in the assay on A549 NSCLC, with BT-549 breast, in the assay with CCRF-CEM leukemia, in the assay with HCT-15 colon and with LOX IMVI melanoma was greater than 100 µM in each case. In addition, the TGI in the assay with M14 melanoma, with MCF7 breast, with MDA-MB-231 breast, with NCI-H23 lung, in the assay on NCI-H522 lung and in the assay with OVCAR-3 ovarian was greater than 100 µM in each case. The TGI with OVCAR-5 ovarian, with PC-3 prostate, in the assay with RXF 393 renal, in the assay with SK-MEL-5 melanoma, in the assay with SK-OV-3 ovarian and with SR leukemia was greater than 100 µM throughout. This molecule yielded a TGI in the assay on UACC-257 melanoma greater than 100 µM.
On to `O=C(Cc1ccccc1)NCCCN(CCCCN(CCCNC(=O)Cc1ccccc1)C(=O)OCc1ccccc1)C(=O)OCc1ccccc1`, for which the TGI in the assay on 786-0 renal was greater than 100 µM; with A549 NSCLC, greater than 100 µM; with BT-549 breast, greater than 100 µM; with CCRF-CEM leukemia, greater than 29.5 µM; with HCT-15 colon, greater than 100 µM; in the assay on LOX IMVI melanoma, greater than 100 µM. The TGI was greater than 100 µM with M14 melanoma; greater than 100 µM in the assay with MCF7 breast; greater than 100 µM with MDA-MB-231 breast; greater than 100 µM in the assay with NCI-H23 lung; 12.2 µM with NCI-H522 lung; greater than 100 µM in the assay on OVCAR-3 ovarian. Besides, the TGI in the assay on OVCAR-5 ovarian, in the assay with PC-3 prostate, in the assay on RXF 393 renal, with SK-MEL-5 melanoma, in the assay with SK-OV-3 ovarian and with SR leukemia was greater than 100 µM each time. The molecule further gave a TGI with UACC-257 melanoma greater than 100 µM.
